Experimental data published in ChEMBL document CHEMBL3407381, “Synthesis, biological evaluation and 3D QSAR study of 2,4-disubstituted quinolines as anti-tuberculosis agents” (Eur J Med Chem, 2015).

How the values were obtained:
[1] = test system: Mycobacterium tuberculosis; test: Anti-tuberculosis activity against Mycobacterium tuberculosis H37Rv assessed as inhibition of microbial growth by MABA method; type: functional, organism-based
L929 = test: Cytotoxicity against mouse L929 cells assessed as reduction cell viability after 5 days by MTT assay; type: cell-based; settings: l929, 120 h
[2] = test system: Mycobacterium tuberculosis; test: Anti-tuberculosis activity against Mycobacterium tuberculosis H37Rv assessed as inhibition of microbial growth at 6.25 ug/ml by MABA method; type: functional
[3] = test system: Mycobacterium tuberculosis; test: Anti-tuberculosis activity against Mycobacterium tuberculosis H37Rv assessed as inhibition of microbial growth at 1.56 ug/ml by MABA method; type: functional
[4] = test system: Mycobacterium tuberculosis; test: Anti-tuberculosis activity against Mycobacterium tuberculosis H37Rv assessed as inhibition of microbial growth at 3.125 ug/ml by MABA method; type: functional

Compound | IC50 [1] | MIC90 [1] | Activity (L929) | inhibition at 6.25 µg/mL [2] | inhibition at 1.56 µg/mL [3] | inhibition at 3.125 µg/mL [4] | MIC99 [1]
COC1CCCC(c2cc(C(=O)NN)nc3ccccc23)C1 (centres undefined) | 2.95 µM | 6.25 µg/mL | > 200 µg/mL | 90% | – | – | –
O=C(c1cc(C23CC4CC(CC(C4)C2)C3)c2ccccc2c1)N1CCN(c2ccccc2)CC1 | 0.871 µM | 6.25 µg/mL | > 200 µg/mL | 90% | – | – | –
NNC(=O)c1cc(C23CC4CC(CC(C4)C2)C3)c2ccccc2n1 | 0.389 µM | 3.12 µg/mL | > 200 µg/mL | 99% | 80% | 99% | –
O=C(c1cc(C23CC4CC(CC(C4)C2)C3)c2ccccc2c1)N1CCOCC1 | 110 µM | 6.25 µg/mL | > 200 µg/mL | 14% | – | – | –
CCCCC(O)c1cc(C23CC4CC(CC(C4)C2)C3)c2ccccc2n1 (centres undefined) | 2.19 µM | 6.25 µg/mL | > 200 µg/mL | 91% | – | – | –
CC1CCCCC1c1cc(C(=O)NN)nc2ccccc12 (centres undefined) | 0.457 µM | 3.12 µg/mL | > 200 µg/mL | 99% | 77% | 99% | –
O=C(c1cc(C23CC4CC(CC(C4)C2)C3)c2ccccc2c1)N1CCCC1 | 13.2 µM | 6.25 µg/mL | > 200 µg/mL | 53% | – | – | –
CC1CCC(c2cc(C(=O)NN)nc3ccccc23)CC1 (centres undefined) | 3.55 µM | 6.25 µg/mL | > 200 µg/mL | 84% | – | – | –
O=C(c1cc(C23CC4CC(CC(C4)C2)C3)c2ccccc2c1)N1CCNCC1 | 3.09 µM | 6.25 µg/mL | > 200 µg/mL | 82% | – | – | –
Cc1ccc(C(O)c2cc(C34CC5CC(CC(C5)C3)C4)c3ccccc3n2)cc1 (centres undefined) | 5.01 µM | 6.25 µg/mL | > 200 µg/mL | 76% | – | – | –
OC(c1ccc(F)cc1)c1cc(C23CC4CC(CC(C4)C2)C3)c2ccccc2n1 (centres undefined) | 0.316 µM | 3.12 µg/mL | > 200 µg/mL | 99% | 69% | 99% | –
O=C(c1cc(C23CC4CC(CC(C4)C2)C3)c2ccccc2c1)N1CCCCC1 | 120 µM | 6.25 µg/mL | > 200 µg/mL | 9% | – | – | –
CO[C@H]1CC[C@@H](c2cc(C(=O)NN)nc3ccccc32)CC1 | 2.34 µM | 6.25 µg/mL | > 200 µg/mL | 90% | – | – | –
COC(=O)c1ccc2ccccc2n1 | – | – | – | ≥ 90% | – | – | –
COc1ccc(C(O)c2cc(C34CC5CC(CC(C5)C3)C4)c3ccccc3n2)cc1 (centres undefined) | 83.2 µM | 6.25 µg/mL | > 200 µg/mL | 47% | – | – | –
C=CCC(O)c1cc(C23CC4CC(CC(C4)C2)C3)c2ccccc2n1 (centres undefined) | 22.9 µM | 6.25 µg/mL | > 200 µg/mL | 44% | – | – | –

Compound | IC50 [1] | MIC90 [1] | Activity (L929) | inhibition at 6.25 µg/mL [2] | inhibition at 1.56 µg/mL [3] | inhibition at 3.125 µg/mL [4] | MIC99 [1]
CCC(O)c1cc(C23CC4CC(CC(C4)C2)C3)c2ccccc2n1 (centres undefined) | 6.92 µM | 6.25 µg/mL | > 200 µg/mL | 73% | – | – | –
O=C(NO)c1cc(C23CC4CC(CC(C4)C2)C3)c2ccccc2c1 | 1.17 µM | 6.25 µg/mL | > 200 µg/mL | 91% | – | – | –
NNC(=O)c1ccncc1 [ISONIAZID] | – | – | – | – | – | – | 0.1 µg/mL
CC(C)(C)C1CCC(c2cc(C(=O)NN)nc3ccccc23)CC1 (centres undefined) | 0.347 µM | 3.12 µg/mL | > 200 µg/mL | 99% | 82% | 99% | –
COC(=O)c1cc(C23CC4CC(CC(C4)C2)C3)c2ccccc2n1 | – | – | – | ≥ 90% | – | – | –
O=C(c1cc(C23CC4CC(CC(C4)C2)C3)c2ccccc2c1)N1CCN(c2ccccn2)CC1 | 63.1 µM | 6.25 µg/mL | > 200 µg/mL | 8% | – | – | –
O=C(NC1CCN(Cc2ccccc2)CC1)c1cc(C23CC4CC(CC(C4)C2)C3)c2ccccc2c1 | 1.51 µM | 6.25 µg/mL | > 200 µg/mL | 90% | – | – | –
CN1CCN(C(=O)c2cc(C34CC5CC(CC(C5)C3)C4)c3ccccc3c2)CC1 | 5.89 µM | 6.25 µg/mL | > 200 µg/mL | 87% | – | – | –
CO[C@H]1CC[C@H](c2cc(C(=O)NN)nc3ccccc32)CC1 | 32.4 µM | 6.25 µg/mL | > 200 µg/mL | 32% | – | – | –
OC(c1ccccc1)c1cc(C23CC4CC(CC(C4)C2)C3)c2ccccc2n1 (centres undefined) | 3.09 µM | 6.25 µg/mL | > 200 µg/mL | 86% | – | – | –
OC(c1cc(C23CC4CC(CC(C4)C2)C3)c2ccccc2n1)c1cccc2ccccc12 (centres undefined) | 182 µM | 6.25 µg/mL | > 200 µg/mL | 9% | – | – | –
CN(C)c1ccc(C(O)c2cc(C34CC5CC(CC(C5)C3)C4)c3ccccc3n2)cc1 (centres undefined) | 331 µM | 6.25 µg/mL | > 200 µg/mL | 4% | – | – | –
CO[C@H]1/C=C/O[C@@]2(C)Oc3c(C)c(O)c4c(O)c(c(/C=N/N5CCN(C)CC5)c(O)c4c3C2=O)NC(=O)/C(C)=C\C=C\[C@H](C)[C@H](O)[C@@H](C)[C@@H](O)[C@@H](C)[C@H](OC(C)=O)[C@@H]1C [RIFAMPIN] | – | – | – | – | – | – | 0.2 µg/mL
NNC(=O)c1cc(CC2CC3CCC2C3)c2ccccc2n1 (centres undefined) | 1.95 µM | 6.25 µg/mL | > 200 µg/mL | 92% | – | – | –
NNC(=O)c1cc(C2CCC(C(F)(F)F)CC2)c2ccccc2n1 (centres undefined) | 2.75 µM | 6.25 µg/mL | > 200 µg/mL | 89% | – | – | –
CCCC(O)c1cc(C23CC4CC(CC(C4)C2)C3)c2ccccc2n1 (centres undefined) | 4.47 µM | 6.25 µg/mL | > 200 µg/mL | 86% | – | – | –
